Experimental data from US20230116972A1, “CD38 MODULATORS AND METHODS OF USE THEREOF” (Cytokinetics, Inc., priority 2021, published 2023).
Read-outs that look alike come from different tables or passages of the source.

Experiments:
[1] = biological target: T1, endogenous CD38 in HL60 cells (Homo sapiens, UniProt P28907); assay: cellular CD38 assay in HL60 cells (cellular NAD levels); format: cell-based; details: all-trans retinoic acid, 24 hours, read-out: hCD38 HL60 ATRA NAD Cell Diaphorase IC50
T1 construct: endogenous in cells; host or cells: HL60 (leukemic cells, treated with all-trans retinoic acid)
T1 sequence (P28907 1-300): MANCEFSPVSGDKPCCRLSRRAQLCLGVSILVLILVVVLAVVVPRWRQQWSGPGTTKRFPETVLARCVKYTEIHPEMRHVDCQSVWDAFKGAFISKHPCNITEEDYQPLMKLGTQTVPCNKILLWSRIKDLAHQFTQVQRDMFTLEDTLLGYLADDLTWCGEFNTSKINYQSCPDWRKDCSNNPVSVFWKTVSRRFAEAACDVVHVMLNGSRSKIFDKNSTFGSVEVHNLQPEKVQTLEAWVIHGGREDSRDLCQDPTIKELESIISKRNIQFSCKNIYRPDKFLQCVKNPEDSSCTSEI
In short: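 HL60 cells (20000/well) were treated with compound in DMSO for 24 h. Cellular NAD was then measured by an enzymatic cycling mix (alcohol dehydrogenase, diaphorase, 40 uM resazurin, 10 uM FMN, 3% ethanol, Triton X-100, pH 8.4).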

CYP1A2 = biological target: T2, CYP1A2 (Homo sapiens, UniProt P05177); assay: direct inhibition of CYP450 in human liver microsomes; format: in vitro ADME
T2 construct: from tissue; host or cells: human liver microsomes (pooled in the time-dependent assay)
T2 sequence (P05177 1-516): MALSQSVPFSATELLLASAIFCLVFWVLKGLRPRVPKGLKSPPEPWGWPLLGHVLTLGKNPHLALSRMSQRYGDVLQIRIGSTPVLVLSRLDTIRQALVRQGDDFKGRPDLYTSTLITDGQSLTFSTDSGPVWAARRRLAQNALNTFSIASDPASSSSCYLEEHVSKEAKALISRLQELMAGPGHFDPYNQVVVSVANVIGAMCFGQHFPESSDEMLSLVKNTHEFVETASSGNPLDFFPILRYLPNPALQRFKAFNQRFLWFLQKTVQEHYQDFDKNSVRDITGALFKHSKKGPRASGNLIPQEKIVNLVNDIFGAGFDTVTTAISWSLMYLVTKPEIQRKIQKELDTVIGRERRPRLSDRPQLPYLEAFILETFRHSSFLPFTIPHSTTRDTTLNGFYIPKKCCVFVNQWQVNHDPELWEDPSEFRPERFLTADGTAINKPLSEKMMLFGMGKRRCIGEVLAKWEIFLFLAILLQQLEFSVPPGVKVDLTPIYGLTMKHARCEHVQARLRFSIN
Description: (§1) Direct inhibition: […] A Perspective of the Pharmaceutical Research and Manufacturers of America”, Drug Metabolism and Disposition, 37 (7): 1355, 2009). For 3A4, the % activity was measured using both midazolam and testosterone as probes. Each compound at 3, 10, and 50 μM was incubated with HLM, NADPH and CYP isoenzyme specific probe substrates at 37° C. Inhibition of the probe substrate metabolism was quantified using LC/MS/MS. […] Known chemical inhibitors specific for the individual CYP isoenzymes were evaluated in parallel as positive controls and these compounds produced CYP inhibition consistent with published results (Walsky & Obach RS. “Validated assays for human cytochrome P450 activities”. Drug Metab Dispos. 32(6):647-60, 2004). Note that, in Tables 6 and 7, the “Compound No” corresponds to the compound numbers in Table 1.

CYP2B6 = biological target: T3, CYP2B6 (Homo sapiens, UniProt P20813); assay: as above; format: in vitro ADME; details: for activity at 3 µM / activity at 10 µM / activity at 50 µM: % of non-inhibited control, read-out: CYP2B6 T0 % activity; for IC50: estimated from 3, 10, 50 uM, read-out: CYP2B6 T0 estimated IC50
T3 construct: from tissue; host or cells: human liver microsomes (pooled in the time-dependent assay)
T3 sequence (P20813 1-491): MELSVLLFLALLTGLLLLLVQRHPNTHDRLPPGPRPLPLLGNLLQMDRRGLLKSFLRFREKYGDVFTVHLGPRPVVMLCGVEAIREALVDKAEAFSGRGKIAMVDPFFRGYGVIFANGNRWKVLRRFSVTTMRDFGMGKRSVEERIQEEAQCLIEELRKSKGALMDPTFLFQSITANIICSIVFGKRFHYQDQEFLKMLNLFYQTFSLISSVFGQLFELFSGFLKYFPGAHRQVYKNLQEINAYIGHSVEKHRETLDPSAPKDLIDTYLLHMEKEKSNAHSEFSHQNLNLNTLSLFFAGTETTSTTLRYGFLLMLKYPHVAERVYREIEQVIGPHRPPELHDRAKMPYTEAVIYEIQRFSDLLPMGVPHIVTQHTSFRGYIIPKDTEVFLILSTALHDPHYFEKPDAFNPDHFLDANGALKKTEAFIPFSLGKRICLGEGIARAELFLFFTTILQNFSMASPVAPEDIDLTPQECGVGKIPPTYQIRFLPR
Description: as §1

CYP2C19 = biological target: T4, CYP2C19 (Homo sapiens, UniProt P33261); assay: as above; format: in vitro ADME; details: for activity at 3 µM / activity at 10 µM / activity at 50 µM: % of non-inhibited control, read-out: CYP2C19 T0 % activity; for IC50: estimated from 3, 10, 50 uM, read-out: CYP2C19 T0 estimated IC50
T4 construct: from tissue; host or cells: human liver microsomes (pooled in the time-dependent assay)
T4 sequence (P33261 whole entry): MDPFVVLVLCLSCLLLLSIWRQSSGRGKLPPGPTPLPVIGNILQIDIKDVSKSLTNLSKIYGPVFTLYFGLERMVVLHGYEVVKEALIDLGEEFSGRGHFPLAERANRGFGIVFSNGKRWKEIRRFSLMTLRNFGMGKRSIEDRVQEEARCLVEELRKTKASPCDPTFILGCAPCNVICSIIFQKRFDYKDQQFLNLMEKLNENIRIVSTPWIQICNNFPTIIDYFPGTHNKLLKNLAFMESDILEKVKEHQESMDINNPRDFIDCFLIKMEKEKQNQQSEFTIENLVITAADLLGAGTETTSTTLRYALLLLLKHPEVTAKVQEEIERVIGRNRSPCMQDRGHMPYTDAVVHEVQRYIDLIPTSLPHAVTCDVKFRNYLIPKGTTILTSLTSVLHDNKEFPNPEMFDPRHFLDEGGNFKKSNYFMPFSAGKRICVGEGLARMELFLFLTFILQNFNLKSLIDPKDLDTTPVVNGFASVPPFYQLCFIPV
Description: as §1

CYP2C9 = biological target: T5, CYP2C9 (Homo sapiens, UniProt P11712); assay: as above; format: in vitro ADME; details: for activity at 3 µM / activity at 10 µM / activity at 50 µM: % of non-inhibited control, read-out: CYP2C9 T0 % activity; for IC50: estimated from 3, 10, 50 uM, read-out: CYP2C9 T0 estimated IC50
T5 construct: from tissue; host or cells: human liver microsomes (pooled in the time-dependent assay)
T5 sequence (P11712 whole entry): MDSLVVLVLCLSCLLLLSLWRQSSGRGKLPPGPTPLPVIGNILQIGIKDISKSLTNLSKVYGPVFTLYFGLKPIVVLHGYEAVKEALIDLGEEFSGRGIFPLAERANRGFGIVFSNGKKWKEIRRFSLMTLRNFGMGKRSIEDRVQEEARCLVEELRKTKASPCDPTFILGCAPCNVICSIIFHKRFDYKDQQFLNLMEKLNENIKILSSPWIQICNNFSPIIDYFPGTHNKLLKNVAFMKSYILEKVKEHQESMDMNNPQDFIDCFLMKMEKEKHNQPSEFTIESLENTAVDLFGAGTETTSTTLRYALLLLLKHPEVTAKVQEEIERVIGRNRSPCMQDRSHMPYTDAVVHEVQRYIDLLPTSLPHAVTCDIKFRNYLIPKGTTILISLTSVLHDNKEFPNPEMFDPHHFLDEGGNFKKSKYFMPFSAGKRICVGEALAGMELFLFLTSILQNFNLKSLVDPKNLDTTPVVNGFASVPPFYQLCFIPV
Description: as §1

CYP3A4 = biological target: T6, CYP3A4 (Homo sapiens, UniProt P08684); assay: direct inhibition of CYP450 in human liver microsomes (midazolam and testosterone probes); format: in vitro ADME
T6 construct: from tissue; host or cells: human liver microsomes (pooled in the time-dependent assay)
T6 sequence (P08684 whole entry): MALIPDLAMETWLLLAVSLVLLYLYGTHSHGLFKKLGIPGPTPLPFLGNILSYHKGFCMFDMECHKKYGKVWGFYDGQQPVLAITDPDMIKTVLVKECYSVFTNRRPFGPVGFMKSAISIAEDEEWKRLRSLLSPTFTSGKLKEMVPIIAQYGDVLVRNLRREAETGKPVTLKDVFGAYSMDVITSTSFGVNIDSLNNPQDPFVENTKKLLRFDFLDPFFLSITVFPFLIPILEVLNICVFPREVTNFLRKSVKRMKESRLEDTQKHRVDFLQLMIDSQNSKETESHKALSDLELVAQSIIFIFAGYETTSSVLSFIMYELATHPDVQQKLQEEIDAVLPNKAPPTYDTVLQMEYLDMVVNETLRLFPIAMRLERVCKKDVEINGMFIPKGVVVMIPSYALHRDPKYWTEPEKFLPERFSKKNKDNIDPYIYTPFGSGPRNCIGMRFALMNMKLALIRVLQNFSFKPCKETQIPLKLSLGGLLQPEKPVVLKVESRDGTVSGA
Description: as §1

[2] = midazolam probe, read-out: CYP3A4-M T0 % activity
[3] = testosterone probe, read-out: CYP3A4-T T0 % activity
[4] = midazolam probe, read-out: CYP3A4-M T0 estimated IC50
[5] = testosterone probe, read-out: CYP3A4-T T0 estimated IC50
[6] = 3 uM, human liver microsomes, % of non-inhibited control, read-out: CYP1A2 T0 % activity
[7] = 10 uM, human liver microsomes, % of non-inhibited control, read-out: CYP1A2 T0 % activity
[8] = 50 uM, human liver microsomes, % of non-inhibited control, read-out: CYP1A2 T0 % activity
[9] = human liver microsomes, estimated from 3, 10, 50 uM, read-out: CYP1A2 T0 estimated IC50

| IC50 [1] [µM] | activity at 3 µM (CYP2B6) [%] | activity at 10 µM (CYP2B6) [%] | activity at 50 µM (CYP2B6) [%] | IC50 (CYP2B6) [µM] | activity at 3 µM (CYP2C19) [%] | activity at 10 µM (CYP2C19) [%] | activity at 50 µM (CYP2C19) [%] | IC50 (CYP2C19) [µM] | activity at 3 µM (CYP2C9) [%] | activity at 10 µM (CYP2C9) [%] | activity at 50 µM (CYP2C9) [%] | IC50 (CYP2C9) [µM] | activity at 3 µM (CYP3A4; [2]) [%] | activity at 3 µM (CYP3A4; [3]) [%] | activity at 10 µM (CYP3A4; [2]) [%] | activity at 10 µM (CYP3A4; [3]) [%] | activity at 50 µM (CYP3A4; [2]) [%] | activity at 50 µM (CYP3A4; [3]) [%] | IC50 (CYP3A4; [4]) [µM] | SMILES | further results |
| --- | --- | --- | --- | --- | --- | --- | --- | --- | --- | --- | --- | --- | --- | --- | --- | --- | --- | --- | --- | --- | --- |
| 1.89 | – | – | – | – | – | – | – | – | – | – | – | – | – | – | – | – | – | – | – | CO[C@H]1CC[C@H](NC(=O)c2nccc(-c3cncn3C)n2)CC1 [Compound 148, N-((1r,4r)-4-methoxycyclohexyl)-4-(1-methyl-1H-imidazol-5-yl)pyrimidine-2-carboxamide] | – |
| 1.9 | 98 | 95 | 79 | > 50 | 83 | 63 | 23 | < 50 | 96 | 81 | 49 | < 50 | 147 | 100 | 148 | 97 | 96 | 72 | > 50 | CO[C@H]1CC[C@H](NC(=O)c2cc(C3CCC(F)(F)CC3)nc(-c3cncn3C)n2)CC1 [Compound 289, 6-(4,4-difluorocyclohexyl)-N-((1r,4r)-4-methoxycyclohexyl)-2-(1-methyl-1H-imidazol-5-yl)pyrimidine-4-carboxamide] | activity at 3 µM (CYP1A2; [6]): 100%; activity at 10 µM (CYP1A2; [7]): 95%; activity at 50 µM (CYP1A2; [8]): 81%; IC50 (CYP1A2; [9]): > 50 µM; IC50 (CYP3A4; [5]): > 50 µM |
| 3.61 | 103 | 101 | 91 | > 50 | 97 | 96 | 88 | > 50 | 90 | 94 | 86 | > 50 | 88 | 96 | 97 | 99 | 82 | 95 | > 50 | Cn1cncc1-c1ccnc(C(=O)N[C@H]2CC[C@H](O)CC2)n1 [Compound 256, N-((1r,4r)-4-hydroxycyclohexyl)-4-(1-methyl-1H-imidazol-5-yl)pyrimidine-2-carboxamide] | activity at 3 µM (CYP1A2; [6]): 94%; activity at 10 µM (CYP1A2; [7]): 92%; activity at 50 µM (CYP1A2; [8]): 78%; IC50 (CYP1A2; [9]): > 50 µM; IC50 (CYP3A4; [5]): > 50 µM |

The next lines start with the molecule.

| SMILES | IC50 [1] [µM] | activity at 3 µM (CYP2B6) [%] | activity at 10 µM (CYP2B6) [%] | activity at 50 µM (CYP2B6) [%] | IC50 (CYP2B6) [µM] | activity at 3 µM (CYP2C19) [%] | activity at 10 µM (CYP2C19) [%] | activity at 50 µM (CYP2C19) [%] | IC50 (CYP2C19) [µM] | activity at 3 µM (CYP2C9) [%] | activity at 10 µM (CYP2C9) [%] | activity at 50 µM (CYP2C9) [%] | IC50 (CYP2C9) [µM] | activity at 3 µM (CYP3A4; [2]) [%] | activity at 3 µM (CYP3A4; [3]) [%] | activity at 10 µM (CYP3A4; [2]) [%] | activity at 10 µM (CYP3A4; [3]) [%] | activity at 50 µM (CYP3A4; [2]) [%] | activity at 50 µM (CYP3A4; [3]) [%] | IC50 (CYP3A4; [4]) [µM] | further results |
| --- | --- | --- | --- | --- | --- | --- | --- | --- | --- | --- | --- | --- | --- | --- | --- | --- | --- | --- | --- | --- | --- |
| CC(C)(O)c1ccc(NC(=O)c2nccc(-n3ccnc3)n2)cn1 [Compound 249, N-(6-(2-hydroxypropan-2-yl)pyridin-3-yl)-4-(1H-imidazol-1-yl)pyrimidine-2-carboxamide] | 0.838 | 98 | 98 | 92 | > 50 | 95 | 96 | 74 | > 50 | 106 | 103 | 92 | > 50 | 108 | 99 | 103 | 100 | 100 | 92 | > 50 | IC50 (CYP1A2): > 50 µM; activity at 3 µM (CYP1A2; human, microsomes): 99%; activity at 10 µM (CYP1A2; human, microsomes): 93%; activity at 50 µM (CYP1A2; human, microsomes): 81%; IC50 (CYP3A4; [5]): > 50 µM |
| CO[C@H]1CC[C@H](NC(=O)c2cc(C3(C)COC3)nc(-c3cncn3C)n2)CC1 [Compound 295, N-((1r,4r)-4-methoxycyclohexyl)-2-(1-methyl-1H-imidazol-5-yl)-6-(3-methyloxetan-3-yl)pyrimidine-4-carboxamide] | 2.31 | 96 | 91 | 79 | > 50 | 108 | 100 | 79 | > 50 | 91 | 85 | 63 | > 50 | 92 | 103 | 93 | 106 | 101 | 86 | > 50 | activity at 3 µM (CYP1A2; [6]): 101%; activity at 10 µM (CYP1A2; [7]): 98%; activity at 50 µM (CYP1A2; [8]): 97%; IC50 (CYP1A2; [9]): > 50 µM; IC50 (CYP3A4; [5]): > 50 µM |
| Cn1cncc1-c1ccnc(C(=O)Nc2ccc(C(C)(C)O)nc2)n1 [Compound 250, N-(6-(2-hydroxypropan-2-yl)pyridin-3-yl)-4-(1-methyl-1H-imidazol-5-yl)pyrimidine-2-carboxamide] | 0.924 | 101 | 99 | 89 | > 50 | 88 | 88 | 66 | > 50 | 99 | 94 | 89 | > 50 | 96 | 104 | 89 | 106 | 73 | 85 | > 50 | IC50 (CYP1A2): < 50 µM; activity at 3 µM (CYP1A2; human, microsomes): 88%; activity at 10 µM (CYP1A2; human, microsomes): 69%; activity at 50 µM (CYP1A2; human, microsomes): 34%; IC50 (CYP3A4; [5]): > 50 µM |
